A value given as a limit tells only on which side of the number the result lay.

This assay has as its target human PDE1B enzyme (Homo sapiens (Human), UniProt Q01064). The assay can be described thus: IMAP TR-FRET PDE1B enzymatic assay. In kind it is biochemical. Particulars: negative log of half-maximal molar inhibitory concentration, 200 nM FAM-cAMP, values given as bins; for IC50: read-out: PDE1b (pIC50) (converted). In outline:
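Full-length GST-tagged human PDE1B (250 pg/well) in IMAP BSA buffer with 10 U/ml calmodulin and 2.5 mM CaCl2; compound pre-incubated 5 min at room temperature, then 200 nM (final) FAM-cAMP for 30 min. IMAP binding reagent/Tb added, 1 h; TR-FRET 520/490 ratio read. IC50 from sigmoidal dose-response fit.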

Take `Cc1oc2ncnc(NC3(C)CC3)c2c1C(=O)N1CCc2c(ncnc2NC2(C)CC2)C1` [Example 796, 6-Methyl-N-(1-methylcyclopropyl)-5-{4-[(1-methylcyclopropyl)amino]-5H,6H,7H,8H-pyrido[3,4-d]pyrimidine-7-carbonyl}furo[2,3-d]pyrimidin-4-amine]: the IC50 was 0.01 to 0.1 µM.
Still for that read-out and setting: then `Cc1oc2ncnc(NC3(C)CC3)c2c1C(=O)N1CCC(c2ccc(OCCF)cc2)C1` (stereo not shown) [Example 797, 5-{3-[4-(2-Fluoroethoxy)phenyl]pyrrolidine-1-carbonyl}-6-methyl-N-(1-methylcyclopropyl)furo[2,3-d]pyrimidin-4-amine], with 0.01 to 0.1 µM.
Take `Cc1cc(F)nc(C2CCN(C(=O)c3c(C)oc4ncnc(NC5(C)CC5)c34)C2)c1` (stereo not shown) [Example 798, 5-[3-(6-Fluoro-4-methylpyridin-2-yl)pyrrolidine-1-carbonyl]-6-methyl-N-(1-methylcyclopropyl)furo[2,3-d]pyrimidin-4-amine]: the “PDE1b (pIC50)” value is >8.
Still for that read-out and setting: then `Cc1nc(C2CCN(C(=O)c3c(C)oc4ncnc(NC5(C)CC5)c34)C2)ccc1F` (stereo not shown) [Example 799, 5-[3-(5-Fluoro-6-methylpyridin-2-yl)pyrrolidine-1-carbonyl]-6-methyl-N-(1-methylcyclopropyl)furo[2,3-d]pyrimidin-4-amine], with >8; and `Cc1nc(C2CCN(C(=O)c3c(C)oc4ncnc(NC5(C)CC5)c34)C2)ncc1F` (stereo not shown) [Example 800, 5-[3-(5-Fluoro-4-methylpyrimidin-2-yl)pyrrolidine-1-carbonyl]-6-methyl-N-(1-methylcyclopropyl)furo[2,3-d]pyrimidin-4-amine], with >8; and `Cc1oc2ncnc(NC3(C)CC3)c2c1C(=O)N1CCC(c2cccc(C(F)(F)F)n2)C1` (stereo not shown) [Example 801, 6-Methyl-N-(1-methylcyclopropyl)-5-f{3-[6-(trifluoromethyl)pyridin-2-yl]pyrrolidine-1-carbonyl}furo[2,3-d]pyrimidin-4-amine], with >8.
As to `Cc1oc2ncnc(NC3(C)CC3)c2c1C(=O)N1CCC(c2cc(C(F)(F)F)ccn2)C1` (stereo not shown) [Example 802, 6-Methyl-N-(1-methylcyclopropyl)-5-f{3-[4-(trifluoromethyl)pyridin-2-yl]pyrrolidine-1-carbonyl}furo[2,3-d]pyrimidin-4-amine], the “PDE1b (pIC50)” value is on record as >8.
On to `Cc1oc2ncnc(NC3(C)CC3)c2c1C(=O)N1CCc2c(ncnc2C2CCOCC2)C1` [Example 803, 6-Methyl-N-(1-methylcyclopropyl)-5-[4-(oxan-4-yl)-5H,6H,7H,8H-pyrido[3,4-d]pyrimidine-7-carbonyl]furo[2,3-d]pyrimidin-4-amine], for which the IC50 is 0.01 to 0.1 µM.
Still for that read-out and setting: for `C=C(C)c1ncnc2c1CCN(C(=O)c1c(C)oc3ncnc(NC4(C)CC4)c13)C2` [Example 804, 6-Methyl-N-(1-methylcyclopropyl)-5-[4-(prop-1-en-2-yl)-5H,6H,7H,8H-pyrido[3,4-d]pyrimidine-7-carbonyl]furo[2,3-d]pyrimidin-4-amine] the value was 0.01 to 0.1 µM.
The same measure, in the same setting: then `Cc1oc2ncnc(NC3(C)CC3)c2c1C(=O)N1CCc2c(ncnc2C2CC2)C1` [Example 805, 5-{4-Cyclopropyl-5H,6H,7H,8H-pyrido[3,4-d]pyrimidine-7-carbonyl}-6-methyl-N-(1-methylcyclopropyl)furo[2,3-d]pyrimidin-4-amine], with 0.01 to 0.1 µM.
Still for that read-out and setting: for `CCCOc1ncnc2c1CCN(C(=O)c1c(C)oc3ncnc(NC4(C)CC4)c13)C2` [Example 806, 6-Methyl-N-(1-methylcyclopropyl)-5-f{4-propoxy-5H,6H,7H,8H-pyrido[3,4-d]pyrimidine-7-carbonyl}furo[2,3-d]pyrimidin-4-amine] the value was 0.01 to 0.1 µM.
Turning to `Cc1oc2ncnc(NC3(C)CC3)c2c1C(=O)N1CCc2c(ncnc2OCC(C)C)C1` [Example 807, 6-Methyl-N-(1-methylcyclopropyl)-5-[4-(2-methylpropoxy)-5H,6H,7H,8H-pyrido[3,4-d]pyrimidine-7-carbonyl]furo[2,3-d]pyrimidin-4-amine], the “PDE1b (pIC50)” value was >8.
Same read-out and setting: for `Cc1oc2ncnc(NC3(C)CC3)c2c1C(=O)N1CCc2c(ncnc2OCC2CC2)C1` [Example 808, 5-[4-(Cyclopropylmethoxy)-5H,6H,7H,8H-pyrido[3,4-d]pyrimidine-7-carbonyl]-6-methyl-N-(1-methylcyclopropyl)furo[2,3-d]pyrimidin-4-amine] the value was >8.
Regarding `COCCOc1ncnc2c1CCN(C(=O)c1c(C)oc3ncnc(NC4(C)CC4)c13)C2` [Example 809, 5-[4-(2-Methoxyethoxy)-5H,6H,7H,8H-pyrido[3,4-d]pyrimidine-7-carbonyl]-6-methyl-N-(1-methylcyclopropyl)furo[2,3-d]pyrimidin-4-amine], the IC50 was 0.01 to 0.1 µM.
Regarding `Cc1oc2ncnc(NC3(C)CC3)c2c1C(=O)N1CCc2c(ncnc2OC2CCC2)C1` [Example 810, 5-{4-Cyclobutoxy-5H,6H,7H,8H-pyrido[3,4-d]pyrimidine-7-carbonyl}-6-methyl-N-(1-methylcyclopropyl)furo[2,3-d]pyrimidin-4-amine], the “PDE1b (pIC50)” value is recorded as >8.
Consider `Cc1oc2ncnc(NC3(C)CC3)c2c1C(=O)N1CCc2c(ncnc2OC2CC2)C1` [Example 811, 5-{4-Cyclopropoxy-5H,6H,7H,8H-pyrido[3,4-d]pyrimidine-7-carbonyl}-6-methyl-N-(1-methylcyclopropyl)furo[2,3-d]pyrimidin-4-amine], for which the IC50 is 0.01 to 0.1 µM.
As to `COc1nc(C2CC2)nc2c1CCN(C(=O)c1c(C)oc3ncnc(NC4(C)CC4)c13)C2` [Example 812, 5-{2-Cyclopropyl-4-methoxy-5H,6H,7H,8H-pyrido[3,4-d]pyrimidine-7-carbonyl}-6-methyl-N-(1-methylcyclopropyl)furo[2,3-d]pyrimidin-4-amine], the “PDE1b (pIC50)” value is >8.
Turning to `CCN(Cc1cc(OC)ncn1)C(=O)c1c(C)oc2ncnc(NC3(C)CC3)c12` [Example 813, N-Ethyl-N-[(6-methoxypyrimidin-4-yl)methyl]-6-methyl-4-[(1-methylcyclopropyl)amino]furo[2,3-d]pyrimidine-5-carboxamide], the IC50 is 0.1 to 1 µM.
The same measure, in the same setting: for `Cc1nc(C)n2c1CN(C(=O)c1c(C)oc3ncnc(NC4(C)CC4)c13)CC2` [Example 814, 5-{1,3-Dimethyl-5H,6H,7H,8H-imidazo[1,5-a]pyrazine-7-carbonyl}-6-methyl-N-(1-methylcyclopropyl)furo[2,3-d]pyrimidin-4-amine] the value was 0.1 to 1 µM.

For the origin of these results see patent publication US20250145633A1, “SUBSTITUTED FURANOPYRIMIDINE COMPOUNDS AS PDE1 INHIBITORS” (Dart NeuroScience, LLC, priority 2017, published 2025).
